Laboratory results taken from PMC7782785, “Outer-membrane-acting peptides and lipid II-targeting antibiotics cooperatively kill Gram-negative pathogens” (Communications Biology, 2021).
In brackets after ≈: the same amount, converted by molar mass. Where a SMILES comes first, the peptide text is derived from it. Where no end group is shown, it is not given here. [ ]: non-standard residue; d: D form.

Legend:
A. baumannii LMG 01041 [1] = experiment: microbe, parasite or virus in culture
Experimental: (§1) MIC tests were performed in triplicate by liquid growth inhibition microdilution assays in sterile polypropylene microtiter plates according to the Clinical and Laboratory Standards Institute (CLSI) guideline for bacteria that grow aerobically. Briefly, the indicator strains were first streaked on the appropriate agar plate, and then single colonies were picked and incubated overnight in liquid broth. The final inoculum of bacteria was 5*10^5 CFU/mL prepared in CAMHB (cationic adjusted Mueller–Hinton broth, Sigma-Aldrich) or CAMHB plus 5% of lysed horse blood (TCS Biosciences, Buckingham, UK) in the case of S. pneumoniae. The antimicrobials were 2-fold serially diluted and 50 µL diluted bacterial suspension was added to each well to make the final volume 100 µL. The microtiter plates and the count plates were incubated at 37 °C for 16–20 h without shaking. Growth inhibition was assessed by measuring the OD600 using a microplate reader (Tecan Infinity F200). The lowest concentration of the antimicrobials that inhibits visible growth of the indicator strain is identified as the MIC value.
(§2) The condition for the tests and the analysis of the plates were performed as described above for the MIC tests.

E. aerogenes LMG 02094 [2] = experiment: microbe, parasite or virus in culture
Experimental: as §1, §2

E. coli LMG 15862 [3] = experiment: microbe, parasite or virus in culture
Experimental: as §1, §2

K. pneumoniae LMG 20218 [4] = experiment: microbe, parasite or virus in culture
Experimental: as §1, §2

P. aeruginosa LMG 6395 [5] = experiment: microbe, parasite or virus in culture
Experimental: as §1, §2

[6] = system: human red blood cells (hRBCs); details: cited from earlier work
A. baumannii LMG 01041 [7] = system: A. baumannii LMG 01041
Experimental: (§3) For the synergy test, standard checkerboard broth microdilution assays were conducted to test the synergistic effect of combined antimicrobials using the same condition as before[51],[56]. […] The initial concentration of both peptides was their individual MIC. 50 µL fresh bacterial suspension prepared as above was added to the wells already containing the antimicrobial compound mixture to achieve 100 µL final volume per well.
(§4) The fractional inhibitory concentration (FIC) indices[57] were calculated using the formula FICI = FICa + FICb = MICac/MICa + MICbc/MICb, to determine whether the combination is additive, synergistic or antagonistic[51],[57]. The MICa and MICb is the MIC of compound A or B alone, respectively. MICac is the MIC of compound A in combination with compound B and MICbc is the MIC of compound B when it was combined with compound A. The FIC corresponds to the MIC of a compound in combination with the other compound, divided by the MIC of the compound alone. FICa is FIC of compound A while FICb is FIC of compound B. The FICI was interpreted according to EUCAST[58] as follows: synergistic, FICI ≤ 0.5; additive,0.5 < FICI ≤ 1; indifferent, 1 < FICI < 2; antagonistic, FICI ≥ 2.
as §2

E. aerogenes LMG 02094 [8] = system: E. aerogenes LMG 02094
Experimental: as §3, §4, §2

E. coli LMG 15862 [9] = system: E. coli LMG 15862
Experimental: as §3, §4, §2

K. pneumoniae LMG 20218 [10] = details: LMG 20218
Experimental: as §3, §4, §2

P. aeruginosa LMG 6395 [11] = system: P. aeruginosa LMG 6395
Experimental: as §3, §4, §2

[12] = human plasma (EDTA K2), 3.2 mM peptide, 37 °C, 200 rpm, samples at 1, 3, 6 h; read-out halo size in spot-on-lawn against K. pneumoniae LMG 20218; triplicate
Experimental: For plasma stability, the peptides were lyophilized and resuspended in plasma or PBS (as a control) at a final concentration of 3.2 mM. After that, the peptides were incubated with shaking (200 rpm) during 6 h at 37 °C. At time 1, 3, and 6 h, 10 µL samples were tested against K. pneumoniae LMG 20218 by a spot-on-lawn test. Reduction in the size of the halo was related to the degradation of the peptide. The test was performed in triplicate.

E. faecalis V583 = type: cell-based
Experimental: as §1

E. faecium LMG16003 = type: cell-based
Experimental: as §1

S. aureus LMG8224 = type: cell-based
Experimental: as §1

S. pneumoniae R6 = experiment: MIC, broth microdilution; type: cell-based; details: S. pneumoniae R6 (Gram-positive); compound alone; CAMHB plus 5% lysed horse blood
Experimental: as §1

[13] = system: all the Gram-negative strains tested; experiment: organism not typed
Experimental: as §1, §2
Hemolytic activity was determined with fresh human red blood cells (hRBCs)[28]. The hRBCs were centrifuged (1000×g, 5 min) and the supernatant was discarded. The pellets were washed three times with PBS and diluted in PBS to make the cell stock solution with a cell density of 2*10^8 cells/mL. […] 1% Triton X-100 and PBS were used as controls. […] The supernatant was transferred to a new 96-well plate and hemolysis was monitored by measuring the absorbance at 450 nm (OD450). Hemolysis levels were calculated as percentage. % hemolysis = 100 × (As−A0)/(At−A0), where As, A0, and At are the absorbance of the hRBCs suspension in PBS with antimicrobial agents (As), without antimicrobial agents (A0), and with 1% Triton X-100 (At). […] For the TI calculation (TI = MHC/GM), other factors as the GM (geometric mean of MIC value of all the Gram-negative strains tested) were calculated.

[14] = system: human red blood cells (hRBCs); experiment: Hemolytic activity; details: 1 h
Experimental: Hemolytic activity was determined with fresh human red blood cells (hRBCs)[28]. The hRBCs were centrifuged (1000×g, 5 min) and the supernatant was discarded. The pellets were washed three times with PBS and diluted in PBS to make the cell stock solution with a cell density of 2*10^8 cells/mL. […] 1% Triton X-100 and PBS were used as controls. The cells were incubated at 37 °C for 1 h and centrifuged at 2000 rpm for 5 min. The supernatant was transferred to a new 96-well plate and hemolysis was monitored by measuring the absorbance at 450 nm (OD450). Hemolysis levels were calculated as percentage. % hemolysis = 100 × (As−A0)/(At−A0), where As, A0, and At are the absorbance of the hRBCs suspension in PBS with antimicrobial agents (As), without antimicrobial agents (A0), and with 1% Triton X-100 (At). […] For the TI calculation (TI = MHC/GM), other factors as the GM (geometric mean of MIC value of all the Gram-negative strains tested) were calculated.

HEK-293 cells = experiment: Cytotoxicity, cell viability (CellTiter-Glo); details: all the concentrations tested (up to 88 µM)
Experimental: 96-well plates were seeded with HEK-293 cells at a concentration of 3*10^5 cells/well in 100 µL of DMEM growth medium supplemented with 1% NEAA and 10% FBS. Border wells were filled with 100 µL of sterile PBS. […] ATP levels were measured by adding 50 µL of CellTiter-Glo reagent (Promega, Madison, US) to each well, and luminescence was measured with a SpectraMax i3 microplate reader after 5 minutes of incubation. The potential effect of the tested compounds on cell viability was determined by comparing the signal obtained in the presence of different concentrations of the compounds with those obtained in the control wells. All these tests were performed in triplicate.

[15] = compound alone, CLSI broth microdilution, CAMHB, 5*10^5 CFU/mL, 37 °C, 16–20 h, OD600, triplicate

| Compound | MIC (A. baumannii LMG 01041 [1]; LMG 01041) [µM] | MIC (E. aerogenes LMG 02094 [2]; LMG 02094) [µM] | MIC (E. coli LMG 15862 [3]; LMG 15862) [µM] | MIC (K. pneumoniae LMG 20218 [4]; LMG 20218) [µM] | MIC (P. aeruginosa LMG 6395 [5]; LMG 6395) [µM] | other results |
| --- | --- | --- | --- | --- | --- | --- |
| RRLFRRILRWL-NH2 [L-6] |  |  |  |  |  | MIC (A. baumannii LMG 01041 [1]; [15]): 2 µM; MIC (E. aerogenes LMG 02094 [2]; [15]): 8 µM; MIC (E. coli LMG 15862 [3]; [15]): 2 µM; MIC (K. pneumoniae LMG 20218 [4]; [15]): 4 µM; MIC (P. aeruginosa LMG 6395 [5]; [15]): 3 µM; hemolytic activity in previous studies [6]: rather high hemolytic activity |
| VDKGSYLPRPTPPRPIYNRN-NH2 [L-3] | 8 | >32 | 3 | 16 | 32 |  |
| CC[C@@H](C)[C@@H](NC(=O)[C@@H](CCCCN)NC(=O)[C@@H](CCCCN)NC(=O)[C@@H](Cc1c[nH]c2ccccc12)NC(=O)[C@@H](CC(C)C)NC(=O)[C@H](N)CCCNC(=N)N)C(=O)N[C@H](CCCNC(=N)N)C(=O)N[C@H](CCC(N)=O)C(=O)N[C@@H](C(=O)N[C@@H](C(=O)N[C@H](CCCNC(=N)N)C(N)=O)[C@H](C)CC)C(C)C [D-11R] (H-[dR][dL][dW][dK][dK][dI][dR][dQ][dV][dI][dR]-NH2) | 64 (≈ 95.7 µg/mL) | 32 (≈ 47.8 µg/mL) | 8 (≈ 12 µg/mL) | 32 (≈ 47.8 µg/mL) | 16 (≈ 23.9 µg/mL) | FICI, peptide + nisin (A. baumannii LMG 01041 [7]): 0.188; FICI, peptide + nisin (E. aerogenes LMG 02094 [8]): 0.188; FICI, peptide + nisin (E. coli LMG 15862 [9]): 0.375; FICI, peptide + nisin (K. pneumoniae LMG 20218 [10]): 0.125; FICI, peptide + nisin (P. aeruginosa LMG 6395 [11]): 0.188; stability in plasma [12]: completely resistant to degradation in plasma |
| GIGKHVGKALKGLKGLLKGLGEC [L-7] | 2 | 8 | 6 | 12 | 13 |  |
| RLLFRKIRRLKR [L-4] | >128 | >256 | 64 | >256 | >128 |  |
| VDKPPYLPRPRPPRRIYNR [L-2] | 16 | >64 | 4 | 8 | >64 |  |
| GNNRPVYIPQPRPPHPRL [L-1] | >64 | 8 | 0.5 | 5 | >64 |  |
| RIVQRIKKWLR-NH2 [L-11] | >64 | 128 | 12 | 32 | 16 | FICI, peptide + nisin (A. baumannii LMG 01041 [7]): 0.063; stability in plasma [12]: almost completely degraded within the first 3 h |
| KRIVQRIKKWLR-NH2 [L-8] | 16 | 32 | 4 | 64 | 16 | hemolytic activity [6]: very low hemolytic activity |
| CC[C@@H](C)[C@@H](NC(=O)[C@H](N)CCCNC(=N)N)C(=O)N[C@@H](C(=O)N[C@H](CCC(N)=O)C(=O)N[C@H](CCCNC(=N)N)C(=O)N[C@@H](C(=O)N[C@H](CCCCN)C(=O)N[C@H](CCCCN)C(=O)N[C@H](Cc1c[nH]c2ccccc12)C(=O)N[C@H](CC(C)C)C(=O)N[C@H](CCCNC(=N)N)C(N)=O)[C@H](C)CC)C(C)C [D-11] (H-[dR][dI][dV][dQ][dR][dI][dK][dK][dW][dL][dR]-NH2) | 8 (≈ 12 µg/mL) | 32 (≈ 47.8 µg/mL) | 4 (≈ 5.98 µg/mL) | 32 (≈ 47.8 µg/mL) | 16 (≈ 23.9 µg/mL) | FICI, peptide + nisin (A. baumannii LMG 01041 [7]): 0.094; FICI, peptide + nisin (E. aerogenes LMG 02094 [8]): 0.188; FICI, peptide + nisin (E. coli LMG 15862 [9]): 0.375; FICI, peptide + nisin (K. pneumoniae LMG 20218 [10]): 0.078; FICI, peptide + nisin (P. aeruginosa LMG 6395 [11]): 0.156; MIC (E. faecalis V583): 64 µM (≈ 95.7 µg/mL); MIC (E. faecium LMG16003): 10.6 µM (≈ 15.8 µg/mL); MIC (S. aureus LMG8224): > 85 µM; MIC (S. pneumoniae R6): > 85 µM; GM, MIC geometric mean against all the Gram-negative strains tested [13]: 30.75 µM; stability in plasma [12]: completely resistant to degradation in plasma; TI, therapeutic index (MHC/GM) [14]: 39.03; MHC, minimal hemolytic concentration that caused 10% hemolysis of hRBCs ([14]; red cells of human): 1200 µM; MHA, mean hemolytic activity ([14]; red cells of human, 50 µM): 0%; MHA, mean hemolytic activity ([14]; red cells of human, 100 µM): 0%; MHA, mean hemolytic activity ([14]; red cells of human, 200 µM): 0%; MHA, mean hemolytic activity ([14]; red cells of human, 400 µM): 0%; MHA, mean hemolytic activity ([14]; red cells of human, 600 µM): 0%; effect on viability of HEK-293 cells (HEK-293 cells): did not affect the viability |
| RIWVIWRR-NH2 [L-5] | 2 | 5 | 3 | 6 | 3 |  |

Second part, led by results:

| MIC (A. baumannii LMG 01041 [1]; LMG 01041) [µM] | MIC (E. aerogenes LMG 02094 [2]; LMG 02094) [µM] | MIC (E. coli LMG 15862 [3]; LMG 15862) [µM] | MIC (K. pneumoniae LMG 20218 [4]; LMG 20218) [µM] | MIC (P. aeruginosa LMG 6395 [5]; LMG 6395) [µM] | Compound | other results |
| --- | --- | --- | --- | --- | --- | --- |
| 128 | >256 | 32 | 64 | 16 | RIVQRIKKWL-NH2 [L-10] |  |
| >256 | >256 | 24 | >256 | 32 | RIKRRIKKWLR-NH2 [L-15] |  |
| 128 | 256 | 16 | 32 | 16 | KIVQRIKKWLR-NH2 [L-12] |  |
| >256 | >256 | 256 | >256 | >256 | RIVQRIKKWR-NH2 [L-9] |  |
| >256 | >256 | 16 | >256 | 16 | RIRKRIKKWLR-NH2 [L-14] |  |
| 128 | 128 | 12 | 24 | 16 | AIVQRIKKWLR-NH2 [L-13] |  |
